Earlier results in patent publication US7939522B1, “Dosage formulations for acetylcholinesterase inhibitors” (priority 1999, dated 2011).

Experiments:
sleep = conditions: humans, systemic administration late in the day or at night (Sitaram, 1979, Reimann, 1994)
[1] = reported (Thomsen, 1990)

| Compound | effect on sleep (sleep) | half life [1] |
| --- | --- | --- |
| CNC(=O)Oc1ccc2c(c1)[C@]1(C)CCN(C)[C@@H]1N2C [physostigmine] | disturb sleep and produce awakenings | – |
| COc1ccc2c3c1O[C@H]1C[C@@H](O)C=C[C@@]31CCN(C)C2 [galanthamine] | – | 4.5 to 8 h |
